Source: US20250388605A1, “HETEROBIFUNCTIONAL COMPOUNDS AND METHODS OF TREATING DISEASE” (Halda Therapeutics OpCo, Inc., priority 2022, published 2025)

Assays:
VCaP cells = assay: Cellular growth inhibition assay for VCaP cells, CellTiter-Glo; format: cell-based, human; settings: 72 hours
Description: VCaP cells were purchased from American Type Cell Culture (ATCC Cat #CRL2876) and then seeded on poly-D-lysine coated, black clear-bottom 384-well plates at 5000/well in 25 μL Dulbecco's Modified Eagle Medium (DMEM) supplemented with 10% w/w Fetal bovine serum (FBS) and 1% w/w Pen-Strep. Pen-Strep is a commercially available mixture of penicillin G and streptomycin, which is used in mammalian cell culture media to prevent bacterial contamination. Dulbecco's Modified Eagle Medium (DMEM) supplemented with 10% w/w fetal bovine serum (FBS) and 1% w/w Pen-Strep is herein referred to as Treatment Medium. Following seeding of cells in the plates, the plates were spun at 300×g for 30 seconds, then equilibrated to room temperature for 30 minutes, and then deposited in a humidified tissue culture incubator maintained at 37° C. with 5% CO2.
(§1) At 24 hours after seeding of the cells, dilutions of test compound were prepared in DMSO and dissolved in Treatment Medium, to achieve a final DMSO concentration of 0.5% w/w, thereby providing the Test Compound Solution. A 25 μL aliquot of the Test Compound Solution was added to cells in the well plates. An equal volume of a solution containing DMSO and Treatment Medium was used as a negative control. Following treatment of cells with Test Compound Solution or said equal volume of a solution containing DMSO and Treatment Medium, the plates were spun at 300×g for 30 seconds, and then left in an incubator for 72 hours.
(§2) At the end of the treatment duration, cell viability was quantified with CellTiter-Glo 2.0 reagent (Promega Cat #G9243). For this purpose, plates were equilibrated to room temperature for 30 minutes, and then 25 μL of CellTiter-Glo 2.0 reagent was added to cells in the plate wells. Plates were then agitated on a shaker for two minutes at 500 rpm and subsequently incubated at room temperature for 10 minutes. Following incubation, the plates were spun at 3000×g for 30 seconds, then sealed with an optical adhesive cover, and luminescence readings were measured with an EnVision Plate Reader.
(§3) Data was normalized using zero luminescence for baseline. A four-parameter non-linear regression curve fit was applied to dose-response data in GraphPad Prism data analysis software to determine the half-maximal growth inhibitory concentration (GI50) for each test compound.

[1] = system: T-Rex 293 cell line SC3 cells lacking increased expression of androgen receptor protein; assay: Cellular growth inhibition, T-Rex 293 SC3 cells without doxycycline (no increased androgen receptor expression), CellTiter-Glo; format: cell-based; settings: T-Rex 293 SC3 cells not exposed to doxycycline (no increased androgen receptor expression), 72 hours
Description: (§4) The following types of cells were prepared for this experiment: (i) a T-Rex 293 cell line having increased expression of androgen receptor protein due to exposure to doxycycline and (ii) a T-Rex 293 cell line lacking increased expression of androgen receptor protein. Ability of the test compounds to inhibit proliferation of the foregoing cell types was evaluated according to the procedures set forth below.
(§5) The doxycycline-inducible androgen receptor protein expressing cell line was established using the following protocol: T-Rex 293 cells were purchased from Invitrogen (Cat #R71007) and transfected using Lipofectamine 2000 with the wild-type androgen receptor protein sequence cloned into the pcDNA4/TO vector. Transfected cells were selected using 400 μg/mL Zeocin (Invitrogen Cat #R25001). Following selection, single clones were raised and maintained in Dulbecco's Modified Eagle Medium (DMEM) supplemented with 10% w/w Tetracycline-free fetal bovine serum (FBS) and 250 μg/mL Zeocin. Clones were analyzed for expression of androgen receptor protein in the presence and absence of 10 ng/mL doxycycline (Sigma Cat #D9891), and a single doxycycline-inducible clone (hereinafter “SC3”) was selected for use in downstream assays.
(§6) The SC3 cells were seeded on poly-D-lysine coated, black clear-bottom 384-well plates at 2500/well, in 25 μL Phenol Red Free Dulbecco's Modified Eagle Medium (DMEM) supplemented with 10% w/w charcoal-dextran treated fetal bovine serum (FBS) and 1% w/w pen-strep, with or without 10 ng/mL doxycycline. Pen-Strep is a commercially available mixture of penicillin G and streptomycin, which is used in mammalian cell culture media to prevent bacterial contamination. Phenol Red Free Dulbecco's Modified Eagle Medium (DMEM) supplemented with 10% w/w charcoal-dextran treated fetal bovine serum (FBS) and 1% w/w pen-strep, with or without 10 ng/mL doxycycline is herein referred to as Treatment Medium. Following seeding of cells in the plates, the plates were spun at 300×g for 30 seconds, then equilibrated to room temperature for 30 minutes, and then deposited in a humidified tissue culture incubator maintained at 37° C. with 5% CO2.
as §1, §2, §3

[2] = system: T-Rex 293 cell line SC3 cells having increased expression of androgen receptor protein due to exposure to doxycycline; assay: Cellular growth inhibition, T-Rex 293 SC3 cells with doxycycline (increased androgen receptor expression), CellTiter-Glo; format: cell-based; settings: T-Rex 293 SC3 cells with 10 ng/mL doxycycline (increased androgen receptor expression), 72 hours, CellTiter-Glo 2.0
Description: as §4, §5, §6, §1, §2, §3

| Structure (SMILES) | GI50 (VCaP cells; Homo sapiens) | GI50 [1] | GI50 [2] | GI50 (VCaP cells) |
| --- | --- | --- | --- | --- |
| CCC(=O)Nc1ccc(Oc2cccc(OCCOC3CCN(c4ncc(C(=O)N[C@H]5C(C)(C)[C@H](Oc6ccc(C#N)c(Cl)c6)C5(C)C)cn4)CC3)c2)c(-c2cn(C)c(=O)c3[nH]ccc23)c1 [Compound I-59, N-((1r, 3r)-3-(3-chloro-4-cyanophenoxy)-2,2,4,4-tetramethylcyclobutyl)-2-(4-(2-(3-(2-(6-methyl-7-oxo-6,7-dihydro-1H-pyrrolo[2,3-c]pyridin-4-yl)-4-propionamidophenoxy)phenoxy)ethoxy)piperidin-1-yl)pyrimidine-5-carboxamide] | > 3000 nM | > 3000 nM | < 500 nM | – |
| CCC(=O)N(C)c1ccc(Oc2cccc(OCCOC3CCN(c4ncc(C(=O)N[C@H]5C(C)(C)[C@H](Oc6ccc(C#N)c(Cl)c6)C5(C)C)cn4)CC3)c2)c(-c2cn(C)c(=O)c3[nH]ccc23)c1 [Compound I-60] | < 500 nM | > 3000 nM | < 500 nM | – |
| CCS(=O)(=O)Nc1ccc(Oc2cccc(C(=O)N(C)CCOC3CCN(c4ncc(C(=O)N[C@H]5C(C)(C)[C@H](Oc6ccc(C#N)c(Cl)c6)C5(C)C)cn4)CC3)c2)c(-c2cn(C)c(=O)c3[nH]ccc23)c1 [Compound I-66, N-((1r, 3r)-3-(3-chloro-4-cyanophenoxy)-2,2,4,4-tetramethylcyclobutyl)-2-(4-(2-(3-(4-(ethylsulfonamido)-2-(6-methyl-7-oxo-6,7-dihydro-1H-pyrrolo[2,3-c]pyridin-4-yl)phenoxy)-N-methylbenzamido)ethoxy)piperidin-1-yl)pyrimidine-5-carboxamide] | < 500 nM | > 3000 nM | < 500 nM | – |
| CCS(=O)(=O)Nc1ccc(Oc2cccc(OCCN3CCN(c4ncc(C(=O)N[C@H]5C(C)(C)[C@H](Oc6ccc(C#N)c(Cl)c6)C5(C)C)cn4)CC3)c2)c(-c2cn(C)c(=O)c3[nH]ccc23)c1 [Compound I-77] | < 500 nM | < 500 nM | < 500 nM | – |
| CCS(=O)(=O)Nc1ccc(Oc2cccc(OCCNC3CCN(c4ncc(C(=O)N[C@H]5C(C)(C)[C@H](Oc6ccc(C#N)c(Cl)c6)C5(C)C)cn4)CC3)c2)c(-c2cn(C)c(=O)c3[nH]ccc23)c1 [Compound I-85] | < 500 nM | 500 to 1500 nM | < 500 nM | – |
| CCS(=O)(=O)Nc1ccc(Oc2cccc(N(C)CCN(C)C3CCN(c4ncc(C(=O)N[C@H]5C(C)(C)[C@H](Oc6ccc(C#N)c(Cl)c6)C5(C)C)cn4)CC3)c2)c(-c2cn(C)c(=O)c3[nH]ccc23)c1 [Compound I-86] | < 500 nM | < 500 nM | < 500 nM | – |
| CCS(=O)(=O)Nc1ccc(Oc2cccc(OCCN(C)C3CCN(c4ncc(C(=O)N[C@H]5C(C)(C)[C@H](Oc6ccc(C#N)c(Cl)c6)C5(C)C)cn4)CC3)c2)c(-c2cn(C)c(=O)c3[nH]ccc23)c1 [Compound I-87] | < 500 nM | < 500 nM | < 500 nM | – |
| CCS(=O)(=O)Nc1ccc(Oc2cc(OCCOC3CCN(c4ncc(C(=O)N[C@H]5C(C)(C)[C@H](Oc6ccc(C#N)c(Cl)c6)C5(C)C)cn4)CC3)ccn2)c(-c2cn(C)c(=O)c3[nH]ccc23)c1 [Compound I-111] | < 500 nM | > 3000 nM | < 500 nM | – |
| CCS(=O)(=O)Nc1ccc(-n2ccc(OCCOC3CCN(c4ncc(C(=O)NC5C(C)(C)C(Oc6ccc(C#N)c(Cl)c6)C5(C)C)cn4)CC3)cc2=O)c(-c2cn(C)c(=O)c3[nH]ccc23)c1 (stereo not drawn) [Compound I-112, N-[3-(3-chloro-4-cyano-phenoxy)-2,2,4,4-tetramethyl-cyclobutyl]-2-[4-[2-[[1-[4-(ethylsulfonylamino)-2-(6-methyl-7-oxo-1H-pyrrolo[2,3-c]pyridin-4-yl)phenyl]-2-oxo-4-pyridyl]oxy]ethoxy]-1-piperidyl]pyrimidine-5-carboxamide] | > 3000 nM | > 3000 nM | < 500 nM | – |
| CCS(=O)(=O)Nc1ccc(Oc2cccc(N(C)CCOC3CCN(c4ncc(C(=O)N[C@H]5C(C)(C)[C@H](Oc6ccc(C#N)c(Cl)c6)C5(C)C)cn4)CC3)c2)c(-c2cn(C)c(=O)c3[nH]ccc23)c1 [Compound I-113] | < 500 nM | < 500 nM | < 500 nM | – |
| CCS(=O)(=O)Nc1ccc(Oc2cc(F)cc(OCCOC3CCN(c4ncc(C(=O)N[C@H]5C(C)(C)[C@H](Oc6ccc(C#N)c(Cl)c6)C5(C)C)cn4)CC3)c2)c(-c2cn(C)c(=O)c3[nH]ccc23)c1 [Compound I-127] | < 500 nM | > 3000 nM | < 500 nM | – |
| CCS(=O)(=O)Nc1ccc(Oc2ccc(F)c(OCCOC3CCN(c4ncc(C(=O)N[C@H]5C(C)(C)[C@H](Oc6ccc(C#N)c(Cl)c6)C5(C)C)cn4)CC3)c2)c(-c2cn(C)c(=O)c3[nH]ccc23)c1 [Compound I-128] | < 500 nM | > 3000 nM | < 500 nM | – |
| Cn1cc(-c2cc(NS(=O)(=O)C3CC3)ccc2Oc2cccc(OCCC3CCN(c4ncc(C(=O)N[C@H]5C(C)(C)[C@H](Oc6ccc(C#N)c(Cl)c6)C5(C)C)cn4)CC3)c2)c2cc[nH]c2c1=O [Compound I-130] | – | > 3000 nM | < 500 nM | < 500 nM |
| CC(C)c1ccc(Oc2cccc(OCCC3CCN(c4ncc(C(=O)N[C@H]5C(C)(C)[C@H](Oc6ccc(C#N)c(Cl)c6)C5(C)C)cn4)CC3)c2F)c(-c2cn(C)c(=O)c3[nH]ccc23)c1 [Compound I-132] | – | > 3000 nM | > 3000 nM | > 3000 nM |
| Cn1cc(-c2cc(NS(=O)(=O)C3CC3)ccc2Oc2cccc(CCCN3CCN(c4ncc(C(=O)N[C@H]5C(C)(C)[C@H](Oc6ccc(C#N)c(Cl)c6)C5(C)C)cn4)CC3)c2F)c2cc[nH]c2c1=O [Compound I-135] | – | > 3000 nM | < 500 nM | < 500 nM |
| Cn1cc(-c2cc(NS(=O)(=O)C3CC3)ccc2Oc2cccc(CCOC3CCN(c4ncc(C(=O)N[C@H]5C(C)(C)[C@H](Oc6ccc(C#N)c(Cl)c6)C5(C)C)cn4)CC3)c2F)c2cc[nH]c2c1=O [Compound I-136] | – | < 500 nM | < 500 nM | < 500 nM |
| CCS(=O)(=O)Nc1ccc(Oc2ccc(OCCOC3CCN(c4ncc(C(=O)N[C@H]5C(C)(C)[C@H](Oc6ccc(C#N)c(Cl)c6)C5(C)C)cn4)CC3)cc2)c(-c2cn(C)c(=O)c3[nH]ccc23)c1 [Compound I-139] | – | < 500 nM | < 500 nM | < 500 nM |
| Cn1cc(-c2cc(NS(=O)(=O)C3CC3)ccc2Oc2cccc(CCOC3CCN(c4ncc(C(=O)N[C@H]5C(C)(C)[C@H](Oc6ccc(C#N)c(Cl)c6)C5(C)C)cn4)CC3)c2)c2cc[nH]c2c1=O [Compound I-145] | – | > 3000 nM | < 500 nM | 1500 to 3000 nM |
| CCS(=O)(=O)Nc1ccc(Oc2cc(OCCOC3CCN(c4ncc(C(=O)N[C@H]5C(C)(C)[C@H](Oc6ccc(C#N)c(Cl)c6)C5(C)C)cn4)CC3)ccc2F)c(-c2cn(C)c(=O)c3[nH]ccc23)c1 [Compound I-150] | < 500 nM | > 3000 nM | < 500 nM | – |
| CCS(=O)(=O)Nc1ccc(Oc2ccc(CCCOC3CCN(c4ncc(C(=O)N[C@H]5C(C)(C)[C@H](Oc6ccc(C#N)c(Cl)c6)C5(C)C)cn4)CC3)cc2)c(-c2cn(C)c(=O)c3[nH]ccc23)c1 [Compound I-152] | – | < 500 nM | < 500 nM | < 500 nM |
